Tests used:
GSK-3β = GSK-3β (Homo sapiens, UniProt P49841); test: GSK-3β activity assay (Z′-LYTE); type: biochemical; settings: n = 3; read-out: Mean EC50 in the inhibition of GSK-3β activity
Protocol: The GSK-3β phosphorylation level was determined by using a Z′-LYTE assay (Life Technologies). The assay was performed in a 384-well plate. The wells of the testing plate were divided into blank control wells (without the enzyme), enzyme control wells (without the testing substance), and testing wells (with the enzyme and the testing substance at various concentrations). The inhibition rate of the testing substance is expressed as: inhibition %=(E−S)/(E−B)×100, wherein E is the average emission ratio of enzyme control wells; B is the average emission ratio of blank control wells; S is the emission ratio of the testing sample wells. The median effective concentration of each compound (EC50 μM) was calculated by using the resultant inhibition rate of each sample at various concentrations.

[1] = system: chronic unpredictable stress (CUS) model in rats; test: Sucrose solution preference in CUS model in rats; type: in vivo; settings: 7 days
Protocol: (§1) The chronic unpredictable stress model is usually used as a depression model. The experimental method is as follows. Stimulation includes forced swimming (10° C., 6 min), tail clamping (1 cm from the tail tip, 1 min), water deprivation (24 h), fasting (24 h), isolated housing (24 h), tail suspension (1 h), immobility (2 h), high-speed horizontal oscillation (120 times/min, 1 h), foot shock for 45 minutes (mean 1 mA, time course 1 s, once/min). These stressors were randomly scheduled over a one-week period and repeated throughout the 23-day experiment. The non-stress control group was housed under normal conditions. Time: between 9:00 a.m. and 2:00 p.m. Since Day 15, the animals in each group were daily intragastrically administered with the subject medicament and double distilled water based on body weight (blank group and CUS model group) respectively, 60 minutes before the stress. […] Behavior and sleep electroencephalogram analyses were carried out on Day 22-23 of the stress. On Day 21, 60 minutes after the final administration, a sucrose solution intake test was carried out and sleep electroencephalogram was recorded simultaneously. On Day 22, EPM and forced swimming tests were carried out.

[2] = system: chronic unpredictable stress (CUS) model in rats; test: Autonomous movement in CUS model in rats; type: in vivo; settings: 7 days
Protocol: as §1

[3] = system: chronic unpredictable stress (CUS) model in rats; test: Elevated plus-maze (EPM) anxiety test in CUS model in rats; type: in vivo
Protocol: as §1

[4] = Serum AST and ALT in mice after 14 days of intragastric administration; type: in vivo
Protocol: Blood was collected from epicanthal, stood at room temperature for about 2 hours, and centrifuged for 12 minutes at 3000 r/min after coagulation. The serum was removed and centrifuged again. Alanine transaminase (ALT) and aspartate transaminase (AST) levels were determined

[5] = system: chronic unpredictable stress (CUS) model in rats; test: Forced swimming test in chronic unpredictable stress (CUS) model in rats; type: in vivo; settings: 7 days
Protocol: as §1

[6] = mouse serum, 30 mg/kg/day intragastric, 14 days
[7] = mouse serum, 60 mg/kg/day intragastric, 14 days

Chain of GSK-3β (P49841 whole entry): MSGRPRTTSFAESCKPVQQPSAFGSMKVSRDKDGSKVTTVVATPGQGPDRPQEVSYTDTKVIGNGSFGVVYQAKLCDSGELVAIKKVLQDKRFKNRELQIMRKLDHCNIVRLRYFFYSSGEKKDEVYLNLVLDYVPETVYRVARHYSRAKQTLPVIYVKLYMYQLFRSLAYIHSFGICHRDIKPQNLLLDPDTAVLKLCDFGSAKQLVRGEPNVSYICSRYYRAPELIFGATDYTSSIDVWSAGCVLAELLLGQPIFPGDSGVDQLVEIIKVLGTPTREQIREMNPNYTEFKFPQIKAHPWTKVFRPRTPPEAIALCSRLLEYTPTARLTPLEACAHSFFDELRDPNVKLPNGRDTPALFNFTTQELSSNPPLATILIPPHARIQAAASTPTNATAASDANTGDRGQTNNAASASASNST

Row | Compound | EC50 (GSK-3β) [µM] | Sucrose solution preference ([1]; 7.5 mg/kg intragastric daily) | Sucrose solution preference ([1]; 15 mg/kg intragastric daily) | Sucrose solution preference ([1]; 30 mg/kg intragastric daily) | Autonomous movement Distance ([2]; 7.5 mg/kg intragastric daily) | Autonomous movement Speed ([2]; 7.5 mg/kg intragastric daily) | Autonomous movement Distance ([2]; 15 mg/kg intragastric daily) | Autonomous movement Speed ([2]; 15 mg/kg intragastric daily) | Autonomous movement Distance ([2]; 30 mg/kg intragastric daily) | Autonomous movement Speed ([2]; 30 mg/kg intragastric daily) | Percentage of entries into open arms relative to total entries into arms ([3]; 7.5 mg/kg intragastric daily) | Percentage of residence time in open arms ([3]; 7.5 mg/kg intragastric daily) | Percentage of entries into open arms relative to total entries into arms ([3]; 15 mg/kg intragastric daily) | Percentage of residence time in open arms ([3]; 15 mg/kg intragastric daily) | Percentage of entries into open arms relative to total entries into arms ([3]; 30 mg/kg intragastric daily) | Percentage of residence time in open arms ([3]; 30 mg/kg intragastric daily) | ALT ([4]; mouse, in vivo, 60 mg/kg/day) [U/L] | AST ([4]; mouse, in vivo, 60 mg/kg/day) [U/L] | further results
1 | COc1ccc2cc1Oc1ccc(cc1)C[C@H]1c3cc(c(OC)cc3CCN1C)Oc1c(OC)c(OC)cc3c1[C@H](C2)N(C)CC3 [tetrandrine, reference compound] | 9.02 | 55.4 ± 3.2% | 52.9 ± 3.7% | 67.7 ± 3.3 % | 1369.54 ± 532.47 mm | 4.57 ± 1.85 mm/second | 1124.37 ± 504.85 mm | 3.75 ± 1.98 mm/second | 1027.36 ± 456.76 mm | 3.42 ± 1.33 mm/second | 38.0 ± 2.3% | 42.1 ± 3.7% | 39.5 ± 3.0% | 40.6 ± 4.8% | 43.8 ± 3.2% | 41.3 ± 3.0% | – | – | Sucrose solution preference ([1]; 60 mg/kg intragastric daily): 70.2 ± 4.6 %; Autonomous movement Distance ([2]; 60 mg/kg intragastric daily): 1285.41 ± 401.24 mm; Autonomous movement Speed ([2]; 60 mg/kg intragastric daily): 4.28 ± 1.56 mm/second; Percentage of entries into open arms relative to total entries into arms ([3]; 60 mg/kg intragastric daily): 46.2 ± 2.9 %; Percentage of residence time in open arms ([3]; 60 mg/kg intragastric daily): 42.8 ± 3.5%; AST activity and the AST/ALT ratio ([4]; mice, 30 mg/kg intragastric, 14 consecutive days): evidently enhanced; change in AST activity, ALT activity and the ratio thereof (AST/ALT) in blood serum ([4]; mice, 60 mg/kg intragastric, 14 consecutive days): all evidently enhanced; ALT [4, 6]: 83.8 ± 15.9 U/L; AST [4, 6]: 204.8 ± 21.8 U/L; AST/ALT [4, 6]: 2.44 ± 0.21; ALT [4, 7]: 113.2 ± 20.6 U/L; AST [4, 7]: 205.6 ± 22.8 U/L; AST/ALT [4, 7]: 1.82 ± 0.26
2 | CCOc1c(OC)c(Br)c2c3c1Oc1cc4c(cc1OC)CCN(C)C4Cc1ccc(cc1)Oc1cc(c(Br)cc1OC)CC3N(C)CC2 (centres unmarked) [Compound 5, 5,14-dibromo-7-ethoxy fangchinoline] | 1.26 | 84.1 ± 3.3 % | 86.0 ± 3.5^##,$$ % | 91.5 ± 4.2^##,$$ % | 13732.42 ± 732.45^##,$$ mm | 45.77 ± 2.64^##,$$ mm/second | 14003.63 ± 737.47^##,$$ mm | 46.68 ± 4.02^##,$$ mm/second | 14561.84 ± 807.52^##,$$ mm | 48.54 ± 5.36^##,$$ mm/second | – | – | – | – | – | – | 91.7 ± 15.5 | 101.5 ± 18.7 | melting point: 186 to 188 °C
3 | 5-bromo-7-ethoxy fangchinoline [Compound 4] | – | 79.2 ± 3.4^##,$$ % | 81.5 ± 4.7^##,$$ % | 93.6 ± 3.2^##,$$ % | 13257.21 ± 756.36^##,$$ mm | 44.19 ± 2.64^##,$$ mm/second | 13615.71 ± 743.43^##,$$ mm | 45.39 ± 4.02^##,$$ mm/second | 14362.26 ± 771.52^##,$$ mm | 47.87 ± 5.36^##,$$ mm/second | 54.2 ± 2.6^##,$ % | 66.2 ± 3.4^##,$$ % | 55.3 ± 4.0^##,$ % | 69.5 ± 4.2^##,$$ % | 59.7 ± 5.3^##,$$ % | 68.6 ± 3.2^##,$$ % | – | – | Forced swimming Immobility time ([5]; 7.5 mg/kg intragastric daily): 134.3 ± 4.4^##,$$ seconds; Forced swimming Immobility time ([5]; 15 mg/kg intragastric daily): 96.1 ± 3.74^##,$$ seconds; Forced swimming Immobility time ([5]; 30 mg/kg intragastric daily): 60.5 ± 5.3^##,$$ seconds
4 | COc1cc2c3cc1Oc1c(OC)c(OC)cc4c1[C@@H](Cc1ccc(O)c(c1)Oc1ccc(cc1)C[C@@H]3N(C)CC2)N(C)CC4 [berbamine, reference compound] | > 10 | – | – | 55.05 ± 3.06% | – | – | – | – | 1387.56 ± 584.24 mm | 4.63 ± 1.49 mm/second | – | – | – | – | 38.3 ± 1.9% | 41.0 ± 3.0% | – | – | Sucrose solution preference ([1]; 60 mg/kg intragastric daily): 49.56 ± 4.27%; Autonomous movement Distance ([2]; 60 mg/kg intragastric daily): 1053.45 ± 476.33 mm; Autonomous movement Speed ([2]; 60 mg/kg intragastric daily): 3.51 ± 1.65 mm/second; Percentage of entries into open arms relative to total entries into arms ([3]; 60 mg/kg intragastric daily): 37.5 ± 1.6%; Percentage of residence time in open arms ([3]; 60 mg/kg intragastric daily): 39.6 ± 4.2%

More lines, main results first:

Row | EC50 (GSK-3β) [µM] | Compound | Sucrose solution preference ([1]; 7.5 mg/kg intragastric daily) | Sucrose solution preference ([1]; 15 mg/kg intragastric daily) | Sucrose solution preference ([1]; 30 mg/kg intragastric daily) | Autonomous movement Distance ([2]; 7.5 mg/kg intragastric daily) | Autonomous movement Speed ([2]; 7.5 mg/kg intragastric daily) | Autonomous movement Distance ([2]; 15 mg/kg intragastric daily) | Autonomous movement Speed ([2]; 15 mg/kg intragastric daily) | Autonomous movement Distance ([2]; 30 mg/kg intragastric daily) | Autonomous movement Speed ([2]; 30 mg/kg intragastric daily) | Percentage of entries into open arms relative to total entries into arms ([3]; 7.5 mg/kg intragastric daily) | Percentage of residence time in open arms ([3]; 7.5 mg/kg intragastric daily) | Percentage of entries into open arms relative to total entries into arms ([3]; 15 mg/kg intragastric daily) | Percentage of residence time in open arms ([3]; 15 mg/kg intragastric daily) | Percentage of entries into open arms relative to total entries into arms ([3]; 30 mg/kg intragastric daily) | Percentage of residence time in open arms ([3]; 30 mg/kg intragastric daily) | ALT ([4]; mouse, in vivo, 60 mg/kg/day) [U/L] | AST ([4]; mouse, in vivo, 60 mg/kg/day) [U/L] | further results
5 | 1.68 | CCCOc1c(OC)cc2c3c1Oc1cc4c(cc1OC)CCN(C)C4Cc1ccc(cc1)Oc1cc(ccc1OC)CC3N(C)CC2 (centres unmarked) [Compound 6, 7-propoxy fangchinoline] | 79.45 ± 3.3 % | 85.5 ± 3.6^##,$$ % | 90.4 ± 4.3^##,$$ % | 8940.78 ± 714.35^##,$$ mm | 29.80 ± 2.64^##,$$ mm/second | 11574.92 ± 732.36^##,$$ mm | 38.58 ± 3.02^##,$$ mm/second | 12566.27 ± 764.42^##,$$ mm | 41.89 ± 4.36^##,$$ mm/second | 47.0 ± 2.6 % | 59.4 ± 3.3^##,$$ % | 50.5 ± 3.2 % | 64.1 ± 3.6^##,$$ % | 57.3 ± 4.6^##,$$ % | 66.0 ± 4.2^##,$$ % | 92.3 ± 21.2 | 99.4 ± 21.1 | AST/ALT ([4]; mouse, in vivo, 60 mg/kg/day): 1.08 ± 0.27; melting point: 174.8 to 176.3 °C
6 | 1.35 | COc1ccc2cc1Oc1ccc(cc1)CC1c3cc(c(OC)cc3CCN1C)Oc1c(OC(C)C)c(OC)cc3c1C(C2)N(C)CC3 (centres unmarked) [Compound 8, 7-isopropoxy fangchinoline] | 80.5 ± 3.6 % | 84.7 ± 3.2^##,$ % | 90.1 ± 3.8^##,$$ % | 9968.41 ± 965.52^##,$$ mm | 33.22 ± 2.64^##,$$ mm/second | 12194.23 ± 887.65^##,$$ mm | 40.64 ± 4.02^##,$$ mm/second | 13053.78 ± 1005.46^##,$$ mm | 43.51 ± 5.36^##,$$ mm/second | – | – | – | – | – | – | 80.1 ± 21.3 | 89.2 ± 16.7 | –
7 | 3.21 | COc1ccc2cc1Oc1ccc(cc1)CC1c3cc(c(OC)cc3CCN1C)Oc1c(OC)c(OC)c(Cl)c3c1C(C2)N(C)CC3 (centres unmarked) [Compound 1, 5-chloro-7-methoxy fangchinoline] | 69.6 ± 4.6 % | 78.8 ± 4.0^##,$$ % | 81.6 ± 3.7^##,$$ % | 7581.17 ± 845.04^##,$$ mm | 25.27 ± 2.38^##,$$ mm/second | 9518.08 ± 704.12^##,$$ mm | 31.73 ± 3.44^##,$$ mm/second | 10347.64 ± 923.01^##,$$ mm | 34.49 ± 3.75^##,$$ mm/second | 41.2 ± 2.3 % | 53.6 ± 4.6^##,$$ % | 46.7 ± 3.4 % | 60.8 ± 4.0^##,$$ % | 53.9 ± 3.5^##,$$ % | 60.6 ± 3.7^##,$$ % | 80.9 ± 21.4 | 117.7 ± 16.1 | AST/ALT ([4]; mouse, in vivo, 60 mg/kg/day): 1.45 ± 0.21

Source: US9169268B2, “Use of 7-alkoxy fangchinoline compounds in preventing, alleviating and/or treating depression” (Peking University, priority 2012, dated 2015)
